Experiments:
A-549 = assay: cells; conditions: Homo sapiens, A549, 48 h; for GI50: read-out: A549 GI50; for CC50: read-out: A549 LC50; for IC (TGI): read-out: A549 TGI
Procedure, shortened: (§1)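 Colorimetric SRB read (490 nm) on triplicate wells after 48 h at 37 °C, 5% CO2. Dose range 10 to 10^−8 μg/ml; 5×10^3 cells/well pre-attached 18 h.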

HT-29 = assay: cells; conditions: Homo sapiens, HT-29, 48 h; for GI50: read-out: HT29 GI50; for CC50: read-out: HT29 LC50; for IC (TGI): read-out: HT29 TGI
Procedure, shortened: as §1

LoVo = assay: cells; conditions: Homo sapiens, LoVo, 48 h; for GI50: read-out: LOVO GI50; for CC50: read-out: LOVO LC50; for IC (TGI): read-out: LOVO TGI
Procedure, shortened: as §1

DU-145 = assay: Inhibition of cells growth by colorimetric assay (SRB); conditions: Homo sapiens, DU-145, 48 h; for GI50: read-out: DU145 GI50; for CC50: read-out: DU145 LC50; for IC (TGI): read-out: DU145 TGI
Procedure, shortened: as §1

HeLa-APL = assay: as above; conditions: Homo sapiens, 48 h; for GI50: read-out: HELA-APL GI50; for CC50: read-out: HELA-APL LC50; for IC (TGI): read-out: HELA-APL TGI
Procedure, shortened: as §1

HeLa = assay: as above; conditions: Homo sapiens, HeLa, 48 h; for GI50: read-out: HELA GI50; for CC50: read-out: HELA LC50; for IC (TGI): read-out: HELA TGI
Procedure, shortened: as §1

IGROV-1 = assay: as above; conditions: Homo sapiens, IGROV-1, 48 h; for GI50: read-out: IGROV GI50; for CC50: read-out: IGROV LC50; for IC (TGI): read-out: IGROV TGI
Procedure, shortened: as §1

IGROV-ET = assay: as above; conditions: Homo sapiens, 48 h; for GI50: read-out: IGROV-ET GI50; for CC50: read-out: IGROV-ET LC50; for IC (TGI): read-out: IGROV-ET TGI
Procedure, shortened: as §1

K-562 = assay: as above; conditions: Homo sapiens, K562, 48 h; for GI50: read-out: K562 GI50; for CC50: read-out: K562 LC50; for IC (TGI): read-out: K562 TGI
Procedure, shortened: as §1

LNCaP = assay: as above; conditions: Homo sapiens, LNCaP, 48 h; for GI50: read-out: LNCAP GI50; for CC50: read-out: LNCAP LC50; for IC (TGI): read-out: LNCAP TGI
Procedure, shortened: as §1

LoVo-Dox = assay: as above; conditions: Homo sapiens, 48 h; for GI50: read-out: LOVO-DOX GI50; for CC50: read-out: LOVO-DOX LC50; for IC (TGI): read-out: LOVO-DOX TGI
Procedure, shortened: as §1

PANC-1 = assay: as above; conditions: Homo sapiens, PANC-1, 48 h; for GI50: read-out: PANC-1 GI50; for CC50: read-out: PANC-1 LC50; for IC (TGI): read-out: PANC-1 TGI
Procedure, shortened: as §1

SK-BR-3 = assay: as above; conditions: Homo sapiens, SK-BR-3, 48 h; for GI50: read-out: SK-BR3 GI50; for CC50: read-out: SK-BR3 LC50; for IC (TGI): read-out: SK-BR3 TGI
Procedure, shortened: as §1

SK-MEL-28 = assay: as above; conditions: Homo sapiens, SK-MEL-28, 48 h; for GI50: read-out: MEL-28 GI50; for CC50: read-out: MEL-28 LC50; for IC (TGI): read-out: MEL-28 TGI
Procedure, shortened: as §1

With `CCCCCCCC(=O)Oc1c(C)c2c(c3c1[C@H]1SC[C@]4(NCCc5cc(O)c(OC)cc54)C(=O)OC[C@@H]3N3C1[C@@H]1N[C@@H](Cc4cc(C)c(OC)c(O)c41)[C@@H]3C#N)OCO2` (stereo partly drawn) [compound 52] the GI50 (A-549) was 0.00801 µM, the CC50 (A-549) was 0.973 µM and the IC (TGI) (A-549) was 0.0578 µM. It also gave a GI50 (HT-29) of 0.00614 µM, a CC50 (HT-29) of 7.78 µM and an IC (TGI) (HT-29) of 1.25 µM. For the same compound, the GI50 (LoVo) was 0.00917 µM, the CC50 (LoVo) was 0.0857 µM and the IC (TGI) (LoVo) was 0.0296 µM. It also gave a GI50 (DU-145) of 0.00492 µM, a CC50 (DU-145) of 5.14 µM and an IC (TGI) (DU-145) of 0.0193 µM. The GI50 (HeLa-APL) was 0.00705 µM, the CC50 (HeLa-APL) was 0.0923 µM and the IC (TGI) (HeLa-APL) was 0.0214 µM. The GI50 (HeLa) was 0.00598 µM, the CC50 (HeLa) was 1.85 µM and the IC (TGI) (HeLa) was 0.0225 µM. For the same compound, the GI50 (IGROV-1) was 0.00732 µM, the CC50 (IGROV-1) was 3.06 µM and the IC (TGI) (IGROV-1) was 0.0433 µM. The GI50 (IGROV-ET) was 0.0395 µM, the CC50 (IGROV-ET) was 8.53 µM and the IC (TGI) (IGROV-ET) was 0.119 µM. The GI50 (K-562) was 0.00451 µM, the CC50 (K-562) was 0.0806 µM and the IC (TGI) (K-562) was 0.0213 µM. For the same compound, the GI50 (LNCaP) was 0.00239 µM, the CC50 (LNCaP) was 0.00906 µM and the IC (TGI) (LNCaP) was 0.00466 µM. For the same compound, the GI50 (LoVo-Dox) was 0.273 µM, the CC50 (LoVo-Dox) was 11.9 µM and the IC (TGI) (LoVo-Dox) was 11.9 µM. For the same compound, the GI50 (PANC-1) was 0.0215 µM, the CC50 (PANC-1) was 0.61 µM and the IC (TGI) (PANC-1) was 0.0624 µM. It also gave a GI50 (SK-BR-3) of 0.00618 µM, a CC50 (SK-BR-3) of 11.9 µM and an IC (TGI) (SK-BR-3) of 0.258 µM. The GI50 (SK-MEL-28) was 0.00407 µM, the CC50 (SK-MEL-28) was 0.0527 µM and the IC (TGI) (SK-MEL-28) was 0.0155 µM.

`COc1c(C)cc2c(c1O)[C@H]1N[C@@H](C2)[C@H](O)N2C1[C@@H]1SC[C@]3(NCCc4c3[nH]c3ccc(O)cc43)C(=O)OC[C@H]2c2c3c(c(C)c(OC(C)=O)c21)OCO3` (stereo partly drawn) [compound 65] was tested, and the GI50 (A-549) was 0.0229 µM, the CC50 (A-549) was 0.313 µM and the IC (TGI) (A-549) was 0.056 µM. For the same compound, the GI50 (HT-29) was 0.00451 µM, the CC50 (HT-29) was 13.2 µM and the IC (TGI) (HT-29) was 0.196 µM. For the same compound, the GI50 (LoVo) was 0.00678 µM, the CC50 (LoVo) was 2.96 µM and the IC (TGI) (LoVo) was 0.0369 µM. For the same compound, the GI50 (DU-145) was 0.00263 µM, the CC50 (DU-145) was 4.77 µM and the IC (TGI) (DU-145) was 0.00645 µM. The GI50 (HeLa-APL) was 0.002 µM, the CC50 (HeLa-APL) was 0.00846 µM and the IC (TGI) (HeLa-APL) was 0.0041 µM. For the same compound, the GI50 (HeLa) was 0.00234 µM, the CC50 (HeLa) was 0.00999 µM and the IC (TGI) (HeLa) was 0.00482 µM. The GI50 (IGROV-1) was 0.00407 µM, the CC50 (IGROV-1) was 2.99 µM and the IC (TGI) (IGROV-1) was 0.0114 µM. For the same compound, the GI50 (IGROV-ET) was 0.076 µM, the CC50 (IGROV-ET) was 3.3 µM and the IC (TGI) (IGROV-ET) was 0.406 µM. The GI50 (K-562) was 0.00122 µM, the CC50 (K-562) was 7.8 µM and the IC (TGI) (K-562) was 0.0139 µM. It also gave a GI50 (LNCaP) of 0.000875 µM, a CC50 (LNCaP) of 0.00616 µM and an IC (TGI) (LNCaP) of 0.00254 µM. It also gave a GI50 (LoVo-Dox) of 0.399 µM, a CC50 (LoVo-Dox) of 13.2 µM and an IC (TGI) (LoVo-Dox) of 1.05 µM. For the same compound, the GI50 (PANC-1) was 0.00399 µM, the CC50 (PANC-1) was 4.25 µM and the IC (TGI) (PANC-1) was 0.0123 µM. For the same compound, the GI50 (SK-BR-3) was 0.00297 µM, the CC50 (SK-BR-3) was 0.209 µM and the IC (TGI) (SK-BR-3) was 0.00766 µM. The GI50 (SK-MEL-28) was 0.00378 µM, the CC50 (SK-MEL-28) was 0.042 µM and the IC (TGI) (SK-MEL-28) was 0.0108 µM.

`COc1c(C)cc2c(c1O)[C@H]1N[C@@H](C2)[C@H](O)N2C1[C@@H]1SCC(=O)C(=O)OC[C@H]2c2c3c(c(C)c(OC(C)=O)c21)OCO3` (stereo partly drawn) [compound 43] gave a GI50 (A-549) of 0.0261 µM, a CC50 (A-549) of 0.148 µM and an IC (TGI) (A-549) of 0.0621 µM. For the same compound, the GI50 (HT-29) was 0.0242 µM, the CC50 (HT-29) was 16.7 µM and the IC (TGI) (HT-29) was 0.19 µM. For the same compound, the GI50 (LoVo) was 0.0312 µM, the CC50 (LoVo) was 16.7 µM and the IC (TGI) (LoVo) was 0.0867 µM. The GI50 (DU-145) was 0.0136 µM, the CC50 (DU-145) was 2.92 µM and the IC (TGI) (DU-145) was 0.067 µM. The GI50 (HeLa-APL) was 0.0241 µM, the CC50 (HeLa-APL) was 0.423 µM and the IC (TGI) (HeLa-APL) was 0.0732 µM. For the same compound, the GI50 (HeLa) was 0.00939 µM, the CC50 (HeLa) was 0.145 µM and the IC (TGI) (HeLa) was 0.0399 µM. For the same compound, the GI50 (IGROV-1) was 0.0106 µM, the CC50 (IGROV-1) was 0.384 µM and the IC (TGI) (IGROV-1) was 0.0496 µM. For the same compound, the GI50 (IGROV-ET) was 0.0685 µM, the CC50 (IGROV-ET) was 5.8 µM and the IC (TGI) (IGROV-ET) was 0.369 µM. It also gave a GI50 (K-562) of 0.00311 µM, a CC50 (K-562) of 0.895 µM and an IC (TGI) (K-562) of 0.0138 µM. For the same compound, the GI50 (LNCaP) was 0.00658 µM, the CC50 (LNCaP) was 0.0887 µM and the IC (TGI) (LNCaP) was 0.0202 µM. The GI50 (LoVo-Dox) was 0.423 µM, the CC50 (LoVo-Dox) was 16.7 µM and the IC (TGI) (LoVo-Dox) was 1.15 µM. For the same compound, the GI50 (PANC-1) was 0.0229 µM, the CC50 (PANC-1) was 2.15 µM and the IC (TGI) (PANC-1) was 0.0827 µM. It also gave a GI50 (SK-BR-3) of 0.00583 µM, a CC50 (SK-BR-3) of 0.164 µM and an IC (TGI) (SK-BR-3) of 0.0242 µM. The GI50 (SK-MEL-28) was 0.00909 µM, the CC50 (SK-MEL-28) was 0.091 µM and the IC (TGI) (SK-MEL-28) was 0.0327 µM.
